From patent publication US12329733B2, “Acetyl-leucine or a pharmaceutically acceptable salt thereof for improved mobility and cognitive function” (INTRABIO LTD., priority 2016, dated 2025)
Entries after “also recorded” stand apart in the source; their conditions may differ.

Key:
[1] = test system: patient with postural imbalance; experiment: timed Up and Go test (stance up-and-go test); format: in vivo, human; conditions: Example 6: 5 g/day for 1 month; baseline 25.4 sec
From the text: (§1) The patient was examined clinically by means of the following clinical assessments: maximal distance to walk; timed Up and Go test; Scale for the Assessment and Rating of Ataxia (SARA).

[2] = test system: patient with postural imbalance; experiment: Scale for the Assessment and Rating of Ataxia (SARA); format: in vivo, human; conditions: Example 6: 5 g/day for 1 month; baseline 6.5/40
From the text: as §1

[3] = test system: patients with cerebellar ataxia of different etiologies; conditions: in responders, ref (8); cited from earlier work
[4] = test system: patients with Niemann-Pick type C; conditions: 12 patients, ref (7); cited from earlier work
[5] = test system: patients with gait disorder; experiment: quantitative gait analysis (“gait-rite”, video); format: in vivo, human
cerebellar patients = conditions: cited from earlier work
[6] = test system: subjects with no apparent dysfunction in cognitive ability or movement/balance; experiment: Psychomotor Vigilance Task (Mind Metrics App, 10 trials per test); format: in vivo, human; conditions: for Statistically significant improvement in PVT performance on treatment?: 5 g/day; for % change in Reaction Time: on-treatment vs baseline
From the text: For example, the Psychomotor Vigilance Task (PVT) is a sustained-attention, reaction-timed task that measures the speed with which subjects respond to a visual stimulus. The subject monitors a screen and presses the screen as quickly as possible upon the appearance of visual stimuli. The visual stimuli will then disappear and reappear (at irregular time intervals) e.g., 10 times over the course of the test, with the subject touching the screen as quickly as possible upon each reappearance. Test performance is quantified from an average of the e.g. 10 reaction times. The subject's reaction speed and alertness was assessed using the Mind Metrics App (Psychomotor Vigilance Task, 10 trials per test). The Psychomotor Vigilance Task (PVT) is a sustained-attention, reaction-timed task that measures the speed with which subjects respond to a visual stimulus. The subject is required to monitor a screen and press the screen as quickly as possible upon the appearance of visual stimuli. The visual stimuli will then disappear and reappear (at irregular time intervals) 10 times over the course of the test, with the subject touching the screen as quickly as possible upon each reappearance. Test performance is quantified from an average of the 10 reaction times. […] The subject was assessed for 2 weeks prior to taking acetyl-leucine, which constitutes the baseline period.

[7] = test system: patient with postural imbalance; experiment: timed 8-meter-walking test; format: in vivo, human; conditions: Example 6: 5 g/day for 1 month; baseline 6.5 sec
From the text: (§2) Baseline (prior to commencement of treatment): Maximal distance to walk until the patient could not walk anymore because of fatigue was 1 km. The […] up-and-go test yielded 25.4 sec. SARA yielded 6.5/40. […] Tandem stance and gait was not possible to perform due to an increased fall risk. Mean timed 8-meter-walking test was 6.5 sec.

subjects / patients = experiment: adverse effects / tolerability; format: in vivo, human; conditions: for tolerability: 3 g/day one week then 5 g/day; for Adverse Effects: 5 g/day
[8] = test system: patient with postural imbalance; experiment: maximal distance to walk; format: in vivo, human; conditions: Example 6: person; 5 g/day (2/1.5/1.5 g) for 1 month; baseline 1 km
From the text: as §1, §2

[9] = test system: subject suffering from imbalance and gait disorder; experiment: home setting “get up and go test”; format: in vivo, human; conditions: Example 1: person, 4.5 g/day
Method: “Mobility” refers to the ability of a subject to move. Mobility may be assessed in the elderly using one or more simple tests. As illustrated in the Examples, the “get up and go” test is a simple test capable of measuring mobility. In this test, the speed of sit to stand and walking to a target point is analysed, suitably as described in the Examples. For example, the test may begin with the subject sitting in a chair. At the start of the stop clock, the subject should rise unaided and walk to a target point. The target point may be 2-10 m away, optionally 4-6 m away. The stop clock should be stopped upon the subject reaching the target point. Any change in mobility, for example, over time or through treatment, can be monitored by using the “get up and go” test at two or more time points and comparing the results, again as illustrated in the Examples. Other suitable tests for measuring mobility include those used in the Elderly Mobility Scale (EMS), a 20-point validated assessment tool for the assessment of frail elderly subjects (9), considering locomotion, balance and key position changes. The ability of the subject to move was measured in a home setting “get up and go test”. This test involved the subject rising unaided from their chair and walking the length of their living area to their kitchen. […]

vertigo = conditions: clinical results reported by various authors; cited from earlier work

For `CC(=O)NC(CC(C)C)C(=O)O` (racemic) [acetyl-DL-leucine], which stance up-and-go test [1] is on record?
Its stance up-and-go test is 21.2 s.

And the SARA [2]?
The SARA was 2 /40.

What about the “brain metabolism (PET)” value [3] of the same compound?
Its value is “increased metabolism in the midbrain and lower brainstem”.

And the ataxic symptoms [4]?
The ataxic symptoms was “improvement in ataxic symptoms”.

And the “video analysis of gait” value ([5]; Example 4: 3 weeks after beginning treatment)?
Its value is “now even able to run”.

What about the “Coefficient of variation (CV) of stride time: CV = (standard deviation/mean) × 100” value ([5]; Example 4: after 3 weeks' treatment, before treatment 1.6) of the same compound?
Its value is 1.8.

What about the “Spreading width (distance between the heel center of one footprint to the line of movement of the other foot)” value ([5]; Example 4: after 3 weeks' treatment, before treatment 9.3) of the same compound?
Its value is 8.1 cm.

And the “% of the time of two periods in the gait cycle in which both feet at the same time are in contact with the ground” value ([5]; Example 4: after 3 weeks' treatment, before treatment 27.2)?
The value was 25.5%.

And the Cadence ([5]; Example 4: after 3 weeks' treatment, before treatment 92)?
The Cadence was 100 steps/minute.

And the “Step cycle length (distance between two consecutive contacts of a foot on the ground)” value ([5]; Example 4: after 3 weeks' treatment, before treatment 116)?
Its value is 116 cm.

What about the “Maximum walking speed (maximal gait velocity)” value ([5]; Example 4: after 3 weeks' treatment, before treatment 141) of the same compound?
The value was 157 cm/s.

And the “Natural walking speed (self-chosen gait velocity)” value ([5]; Example 4: person, after 3 weeks' treatment, before treatment 88)?
The value was 96 cm/s.

What about the self-chosen gait velocity ([5]; Example 5: Day 42, 3 gram per day, from 55 cm/sec at Day 0) of the same compound?
The self-chosen gait velocity was 62 cm/s.

What about the maximal gait velocity ([5]; Example 5: Day 42, 3 gram per day, from 84 cm/sec at Day 0) of the same compound?
The maximal gait velocity was 130 cm/s.

And the cerebellar symptoms (cerebellar patients; case series, ref (5))?
The cerebellar symptoms was “Improvement of cerebellar symptoms”.

And the “benefit in another case series” value (cerebellar patients; ref (6))?
The value was “did not find benefit”.

And the “Statistically significant improvement in PVT performance on treatment?” value (“Statistically significant improvement” below) ([6]; Example 7: 66 M, p<0.0001)?
Its value is “significant improvement in Psychomotor Vigilance Task performance”.

What about the “Statistically significant improvement” value ([6]; Example 7: 66 M, p<0.0001, listed as acetyl-leucine) of the same compound?
Its value is “Yes”.

And the “% change in Reaction Time” value ([6]; Example 7: 66 M)?
The value was −30.86%.

What about the “Statistically significant improvement” value ([6]; Example 8: 29 M, p<0.05) of the same compound?
The value was “small but statistically significant improvement”.

And the “Statistically significant improvement” value ([6]; Example 8: 29 M, p<0.05, listed as acetyl-leucine)?
The value was “Yes”.

What about the “% change in Reaction Time” value ([6]; Example 8: 29 M) of the same compound?
The value was −3.593%.

And the “Statistically significant improvement” value ([6]; Example 9: 55 F)?
The value was “not associated with significant changes”.

And the “Statistically significant improvement” value ([6]; Example 9: 55 F, listed as acetyl-leucine)?
The value was “No”.

What about the “% change in Reaction Time” value ([6]; Example 9: 55 F) of the same compound?
Its value is 1.408%.

What about the “Statistically significant improvement” value ([6]; Example 10: […]) of the same compound?
The value was “small, non-statistically significant decline”.

And the “Statistically significant improvement” value ([6]; Example 10: […], listed as acetyl-leucine)?
The value was “No”.

And the “% change in Reaction Time” value ([6]; Example 10: […])?
Its value is 8.13%.

And the “Statistically significant improvement” value ([6]; Example 11: 53 M, p<0.01)?
The value was “statistically significant improvements”.

And the “Statistically significant improvement” value ([6]; Example 11: 53 M, p<0.01, listed as acetyl-leucine)?
Its value is “Yes”.

What about the “% change in Reaction Time” value ([6]; Example 11: 53 M) of the same compound?
Its value is −10.24%.

And the “Statistically significant improvement” value ([6]; Example 12: 48 F, p<0.001)?
The value was “statistically significant improvements”.

And the “Statistically significant improvement” value ([6]; Example 12: 48 F, p<0.001, listed as acetyl-leucine)?
The value was “Yes”.

What about the “% change in Reaction Time” value ([6]; Example 12: 48 F) of the same compound?
The value was −7.474%.

And the “Mean timed 8-meter-walking test” value [7]?
The value was 4.4 s.

What about the side effects (subjects / patients; Example 1: person, 4.5 g per day, over eighteen months) of the same compound?
The side effects was “no side effects”.

What about the tolerability (subjects / patients; Example 3: person) of the same compound?
Its tolerability is “well tolerated”.

What about the tolerability (subjects / patients; Example 4: person) of the same compound?
Its tolerability is “very well tolerated”.

What about the side effects (subjects / patients; Example 6: 2 g/1.5 g/1.5 g per day dosage regimen) of the same compound?
The side effects was “Sleepiness”.

And the “side effects after dose reduction” value (subjects / patients; Example 6: reduced to 1 g/1 g/1 g daily after 1 month, listed as Tanganil®)?
The value was “cease in these side-effect symptoms; also recorded: have not returned”.

And the “Adverse Effects” value (subjects / patients; Example 7: 66 M, first week on medication)?
The value was “mild dizziness/lightheadedness on one occasion”.

What about the “Adverse Effects” value (subjects / patients; Example 8: 29 M, 4 weeks) of the same compound?
Its value is “None reported”.

And the “Adverse Effects” value (subjects / patients; Example 9: 55 F, 4 weeks)?
Its value is “None reported”.

And the “Adverse Effects” value (subjects / patients; Example 10: 50 M, 2 weeks)?
Its value is “None reported”.

What about the “Adverse Effects” value (subjects / patients; Example 11: 53 M, 4 weeks) of the same compound?
The value was “None reported”.

What about the “Adverse Effects” value (subjects / patients; Example 12: 48 F, 4 weeks) of the same compound?
The value was “None reported”.

What about the “Maximal distance to walk” value [8] of the same compound?
Its value is 1.5 km.

What about the “faster than pre-treatment in get up and go test” value [9] of the same compound?
The value was 25%.

What about the “average time taken to rise unaided from chair and walk the length of living area to kitchen” value ([9]; seven consecutive days once treatment had started, prior to treatment 40±3 seconds) of the same compound?
Its value is 30 ± 2 s.

And the “cases with improvement in vertigo symptomology” value (vertigo)?
The value was “more than 95%”.
